From patent US20100240617A1, “BICYCLIC SPHINGOSINE 1-PHOSPHATE ANALOGS” (University of Virginia Patent Foundation, priority 2007, published 2010)

Test system: lymphocytes in blood
Assay: lymphopenia assay
Assay type: in vivo
Conditions: mice, 8 doses, 3 mice per dose
Description: Compounds (e.g., primary alcohols such as compound VIII) are dissolved in 2% hydroxypropyl beta-cyclodextrin and introduced into groups of mice by oral gavage at doses from 0.01, 1.0 and 10 mg/kg body weight. After 24 hours and 48 hours, the mice are lightly anesthetized and ca. 0.1 ml of blood is drawn from the orbital sinus. The number of lymphocytes (in thousands per microliter of blood; normal is 4-11) is determined using a Hemavet blood analyzer. There are three mice/group, the strain was mixed sv129×C57BL/6. Active compounds (e.g., compound VIII-C and compound VIII-D) are dissolved in acidified DMSO at 20 mM, and diluted 1:20 into 2% hydroxypropyl beta-cyclodextrin in water with mixing. […]

## CCCCCCCCc1ccc2c(c1)CCC(C(N)(CO)CO)C2 (single isomer, unassigned; (-)) [VIII-B, (−)-2-Amino-2-(6-octyl-1,2,3,4-tetrahydro-naphthalen-2-yl)-propane-1,3-diol]
  ED50 in the lymphopenia assay: 2 mg/kg

## CCCCCCCCc1ccc2c(c1)CCC(C(N)(CO)CO)C2 (single isomer, unassigned; (+)) [VIII-A, (+)-2-Amino-2-(6-octyl-1,2,3,4-tetrahydro-naphthalen-2-yl)-propane-1,3-diol]
  ED50 in the lymphopenia assay: 0.2 mg/kg
